Test results from patent US20260285853A1, “COMPOUNDS AND METHODS FOR MODULATING SPLICING” (REMIX THERAPEUTICS INC., priority 2023, published 2026).

Columns and labels:
Assay type in all cases: cell-based
MYB mRNA [1] = assay: Splicing RT-qPCR assay (THP), Table 2A; settings: Table 2A (THP); for AC50: AJ mRNA increase, read-out: MYB AJ (increase in alternative junction mRNA, AC50); for IC50: CJ mRNA decrease, read-out: MYB CJ (decrease in canonical junction mRNA, IC50)
MYB mRNA [2] = assay: Gene panel canonical junction qPCR assay, decrease in CJ mRNA, Table 3; settings: decrease in canonical junction (CJ) mRNA, gene panel qPCR, Table 3
Protocol: (§1) Compounds described herein were used to modulate RNA transcript abundance in cells. The expression of a target mRNA was measured by detecting the formation of an exon-exon junction in the canonical transcript (CJ). A compound mediated exon-inclusion event was detected by observing an increase in formation of a new junction with an alternative exon (AJ). Real-time qPCR assays were used to detect these splicing switches and interrogate the potency of various compounds towards different target genes. A high-throughput real time quantitative PCR (RT-qPCR) assay was developed to measure these two isoforms of the mRNA (CJ and AJ) for exemplary genes, such as HTT, SMN2, and MYB, together with a control housekeeping gene, GAPDH or GUSB or PPIA, used for normalization. Briefly, the A673 or K562 cell line was treated with various compounds described herein (e.g., compounds of Formula (I)). After treatment, the levels of the HTT, MYB, or SMN2 mRNA targets were determined from each sample of cell lysate by cDNA synthesis followed by qPCR.
(§2) The A673 cell line was cultured in DMEM with 10% FBS. Cells were diluted with full growth media and plated in a 96-well plate (15,000 cells in 100 ul media per well). The plate was incubated at 37° C. with 5% CO2 for 24 hours to allow cells to adhere. An 11-point 3-fold serial dilution of the compounds was made in DMSO then diluted in media in an intermediate plate. Compounds were transferred from the intermediate plate to the cell plate with the top dose at a final concentration of 10 uM in the well. Final DMSO concentration was kept at or below 0.25%. The cell plate was returned to the incubator at 37° C. with 5% CO2 for an additional 24 hours.
(§3) The K562 cell line was cultured in IMDM with 10% FBS. For K562, cells were diluted with full growth media and plated in either a 96-well plate (50,000 cells in 50 uL media per well) or a 384-well plate (8,000-40,000 cells in 45 uL media per well). An 11-point 3-fold serial dilution of the compounds were made in DMSO then diluted in media in an intermediate plate. Compound was transferred from the intermediate plate to the cell plate with the top dose at a final concentration of 10 uM in the well. Final DMSO concentration was kept at or below 0.25%. Final volume was 100 uL for 96-well plate and 50 uL for 384-well plate. The cell plate was then placed in an incubator at 37° C. with 5% CO2 for 24 hours.
(§4) The data analysis was performed by first determining the ΔCt vs the housekeeper gene. This ΔCt was then normalized against the DMSO control (ΔΔCt) and converted to RQ (relative quantification) using the 2^(−ΔΔCt) equation. The RQ were then converted to a percentage response by arbitrarily setting an assay window of 3.5 and 4.0 ΔCt for HTT-CJ and MYB-CJ respectively and an assay window of 9 and 3 ΔCt for HTT-AJ and MYB-AJ in 96 well format (50,000 K562 cells/well and 15,000 A673 cells per well) and an assay window of 3 and 4 ΔCt for HTT-CJ and MYB-CJ respectively and an assay window of 5 and 3 ΔCt for HTT-AJ and MYB-AJ respectively in 384 well format (8,000 K562 cells/well example). […] The percentage response was then fitted to the 4 parametric logistic equation to evaluate the concentration dependence of compound treatment. The increase in AJ mRNA is reported as AC50 (compound concentration having 50% response in AJ increase) while the decrease in CJ mRNA levels is reported as IC50 (compound concentration having 50% response in CJ decrease).
(§5) Additional studies were carried out for a larger panel of genes using the protocol provided above. The junction between flanking upstream and downstream exons was used to design canonical junction qPCR assays. At least one of the forward primer, reverse primer or the CY5-labeled 5′ nuclease probe (with 3′ quencher such as ZEN/Iowa Black FQ) was designed to overlap with the exon junction to capture the CJ mRNA transcript. […]

HTT mRNA [3] = assay: as above; settings: decrease in canonical junction (CJ) mRNA, gene panel qPCR, Table 3
Protocol: as §1, §2, §3, §4, §5

[4] = tested on: SH-SY5Y (human neuroblastoma) cells; assay: Cell viability, Cell Titer Glo 2.0 assay; settings: read-out: Viability SHSY5Y.3 GI50
Protocol: Compounds described herein were screened for toxicity in K562 (human chronic myelogenous leukemia) and SH-SY5Y (human neuroblastoma) cells using a Cell Titer Glo 2.0 assay.
• Promega CellTiter-Glo® 2.0 Cell Viability Assay (cat #G9241) • Corning 384-well TC-treated microplates (cat #3570)
Cells were plated at 500 cells/well (K562 cells) in 45 μL of IMDM supplemented with 10% FBS in a 384-well opaque plate. Wells containing only medium were used as a blank control. Test compounds (e.g., compounds of Formula (I) or (II) were first serially diluted in DMSO then diluted 1:100 with IMDM+10% FBS. The final concentration of DMSO was 0.1% in each well. The cells were incubated for 72 hours at 37° C. and 5% CO2 before assaying with Cell Titer Glo 2.0 reagent.

HTT mRNA [5] = assay: Splicing RT-qPCR assay (THP), Table 2A; settings: Table 2A (THP); for AC50: AJ mRNA increase, read-out: HTT AJ (increase in alternative junction mRNA, AC50); for IC50: CJ mRNA decrease, read-out: HTT CJ (decrease in canonical junction mRNA, IC50)

| Compound | AC50 (MYB mRNA [1]) | IC50 (MYB mRNA [1]) | IC50 (MYB mRNA [2]) | IC50 (HTT mRNA [3]) | GI50 [4] | AC50 (HTT mRNA [5]) | IC50 (HTT mRNA [5]) |
| --- | --- | --- | --- | --- | --- | --- | --- |
| Cc1cn2cc(NC(=O)c3c(F)cc(N4CCC(NC5CC5)CC4)c4cn(C)nc34)c(OCC3CC3)c(F)c2n1 [Compound 321, 4-[4-(cyclopropylamino)-1-piperidyl]-N-[7-(cyclopropylmethoxy)-8-fluoro-2-methyl-imidazo[1,2-a]-pyridin-6-yl]-6-fluoro-2-methyl-indazole-7-carboxamide] | < 0.1 µM | < 0.1 µM | < 0.1 µM | 0.1 to 1 µM | < 0.1 µM | < 0.1 µM | 0.1 to 1 µM |
| Cc1cn2cc(NC(=O)c3ccc(N4CCC(NC5CC5)CC4)c4cn(C)nc34)cc(Oc3ccnnc3)c2n1 [Compound 322, 4-[4-(cyclopropyl-amino)-1-piperidyl]-2-methyl-N-(2-methyl-8-pyridazin-4-yloxy-imidazo[1,2-a]-pyridin-6-yl)-indazole-7-carboxamide] | 1 to 10 µM | 1 to 10 µM | 1 to 10 µM | 1 to 10 µM | 1 to 10 µM | 1 to 10 µM | 1 to 10 µM |
| CCNC1CCN(c2ccc(C(=O)Nc3cn4cc(C)nc4cc3OC)c3nn(C)cc23)CC1 [Compound 323, 4-[4-(ethylamino)-1-piperidyl]-N-(7-methoxy-2-methyl-imidazo[1,2-a]-pyridin-6-yl)-2-methyl-indazole-7-carboxamide 2,2,2-trifluoroacetate] | 0.1 to 1 µM | 0.1 to 1 µM | 0.1 to 1 µM | 1 to 10 µM | 1 to 10 µM | 1 to 10 µM | 1 to 10 µM |
| CCNC1CCN(c2ccc(C(=O)Nc3cc(OCc4ccccc4)c4nc(C)cn4c3)c3nn(C)cc23)CC1 [Compound 324, N-(8-benzyloxy-2-methylimidazo[1,2-a]pyridin-6-yl)-4-[4-(ethylamino)-1-piperidyl]-2-methyl-indazole-7-carboxamide] | 0.1 to 1 µM | 1 to 10 µM | 1 to 10 µM | > 10 µM | 1 to 10 µM | > 10 µM | > 10 µM |
| CCNC1CCN(c2ccc(C(=O)Nc3cc(Oc4ccc(Cl)cc4)c4nc(C)cn4c3)c3nn(C)cc23)CC1 [Compound 325, N-[8-(4-chloro-phenoxy)-2-methylimidazo[1,2-a]-pyridin-6-yl]-4-[4-(ethylamino)-1-piperidyl]-2-methyl-indazole-7-carboxamide] | < 0.1 µM | 0.1 to 1 µM | 0.1 to 1 µM | 1 to 10 µM | 0.1 to 1 µM | 1 to 10 µM | 1 to 10 µM |
| CCNC1CCN(c2ccc(C(=O)Nc3cc(Oc4cccc(C#N)c4)c4nc(C)cn4c3)c3nn(C)cc23)CC1 [Compound 326, N-[8-(3-cyano-phenoxy)-2-methylimidazo[1,2-a]pyridin-6-yl]-4-[4-(ethylamino)-1-piperidyl]-2-methyl-indazole-7-carboxamide] | 0.1 to 1 µM | 0.1 to 1 µM | 0.1 to 1 µM | 1 to 10 µM | 1 to 10 µM | 1 to 10 µM | 1 to 10 µM |
| CCNC1CCN(c2ccc(C(=O)Nc3cc(Oc4cccc(C)c4)c4nc(C)cn4c3)c3nn(C)cc23)CC1 [Compound 327, 4-[4-(ethylamino)-1-piperidyl]-2-methyl-N-[2-methyl-8-(3-methylphenoxy)imidazo[1,2-a]pyridin-6-yl]indazole-7-carboxamide] | < 0.1 µM | 0.1 to 1 µM | 0.1 to 1 µM | 1 to 10 µM | 0.1 to 1 µM | 1 to 10 µM | 1 to 10 µM |
| CCNC1CCN(c2ccc(C(=O)Nc3cc(Oc4ccc(C)cc4)c4nc(C)cn4c3)c3nn(C)cc23)CC1 [Compound 328, 4-(4-(ethylamino)-piperidin-1-yl)-2-methyl-N-(2-methyl-8-(p-tolyloxy)-imidazo[1,2-a]pyridin-6-yl)-2H-indazole-7-carboxamide 2,2,2-trifluoroacetate] | < 0.1 µM | < 0.1 µM | < 0.1 µM | 0.1 to 1 µM | 0.1 to 1 µM | 0.1 to 1 µM | 0.1 to 1 µM |
| CCNC1CCN(c2ccc(C(=O)Nc3cc(CO)c4nc(C)cn4c3)c3nn(C)cc23)CC1 [Compound 329, 4-[4-(ethylamino)-1-piperidyl]-N-[8-(hydroxymethyl)-2-methyl-imidazo[1,2-a]pyridin-6-yl]-2-methyl-indazole-7-carboxamide] | 0.1 to 1 µM | 0.1 to 1 µM | 0.1 to 1 µM | > 10 µM | 1 to 10 µM | 1 to 10 µM | > 10 µM |
| COc1c(NC(=O)c2c(F)cc(N3CCS(=N)(=O)CC3)c3cn(C)nc23)cn2cc(C)nc2c1F [Compound 330, 6-fluoro-N-(8-fluoro-7-meth-oxy-2-methyl-imidazo[1,2-a]-pyridin-6-yl)-4-(1-imino-1-oxo-1,4-thiazinan-4-yl)-2-methyl-indazole-7-carboxamide] | 0.1 to 1 µM | 1 to 10 µM | 1 to 10 µM | > 10 µM | > 10 µM | > 10 µM | > 10 µM |
| CCNC1CCN(c2cc(F)c(C(=O)Nc3cn4cc(C)nc4cc3OC)c3nn(C)cc23)CC1 [Compound 331, 4-[4-(ethylamino)-1-piperidyl]-6-fluoro-N-(7-methoxy-2-methyl-imidazo [1,2-a]pyridin-6-yl)-2-methyl-indazole-7-carboxamide] | < 0.1 µM | < 0.1 µM | < 0.1 µM | 0.1 to 1 µM | 1 to 10 µM | 0.1 to 1 µM | 0.1 to 1 µM |
| CCNC1CCN(c2cc(O)c(C(=O)Nc3cn4cc(C)nc(C)c4n3)c3nn(C)cc23)CC1 [Compound 332, N-(6,8-dimethylimidazo[1,2-a]pyrazin-2-yl)-4-(4-(ethylamino)piperidin-1-yl)-6-hydroxy-2-methyl-2H-indazole-7-carboxamide 2,2,2-trifluoroacetate] | 0.1 to 1 µM | 0.1 to 1 µM | 0.1 to 1 µM | > 10 µM | 1 to 10 µM | > 10 µM | > 10 µM |
| CCNC1CCN(c2cc(OC)c(C(=O)Nc3cn4cc(C)nc(C)c4n3)c3nn(C)cc23)CC1 [Compound 333, N-(6,8-dimethylimidazo[1,2-a]pyrazin-2-yl)-4-[4-(ethylamino)-1-piperidyl]-6-methoxy-2-methyl-indazole-7-carboxamide] | > 10 µM | > 10 µM | > 10 µM | > 10 µM | > 10 µM | > 10 µM | > 10 µM |
